System: SUM149PT spheroids with HUVEC/MSC, viability
Experiment: Anticancer human tumor SUM149PT cell line growth inhibition [GQUAD];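 note: spheroids exposed to drugs for seven days before readout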;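 for viability, T/C: percent viability relative to DMSO vehicle control taken as 100%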
Settings: for IC50: curve of first compound; for viability, T/C: stronger effect = lower value
In short: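 Tumor cells were grown as complex spheroids with HUVEC endothelial cells and mesenchymal stem cells as stroma. G-quadruplex stabilizers were combined with targeted agents over half-log dilutions from near the clinical Cmax, or from 10 microM.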

[1] = second compound 0.0316 µM, first compound 0.0316 µM
[2] = second compound 0.0316 µM, first compound 0.1 µM
[3] = second compound 0.0316 µM, first compound 0.316 µM
[4] = second compound 0.0316 µM, first compound 1 µM
[5] = second compound 0.0316 µM, first compound 3.16 µM
[6] = second compound 0.0316 µM, first compound 10 µM
[7] = second compound 0.1 µM, first compound 0.0316 µM
[8] = second compound 0.1 µM, first compound 0.1 µM
[9] = second compound 0.1 µM, first compound 0.316 µM
[10] = second compound 0.1 µM, first compound 1 µM
[11] = second compound 0.1 µM, first compound 3.16 µM
[12] = second compound 0.1 µM, first compound 10 µM
[13] = second compound 0.316 µM, first compound 0.0316 µM
[14] = second compound 0.316 µM, first compound 0.1 µM
[15] = second compound 0.316 µM, first compound 0.316 µM
[16] = second compound 0.316 µM, first compound 1 µM
[17] = second compound 0.316 µM, first compound 3.16 µM
[18] = second compound 0.316 µM, first compound 10 µM
[19] = second compound 1 µM, first compound 0.0316 µM
[20] = second compound 1 µM, first compound 0.1 µM
[21] = second compound 1 µM, first compound 0.316 µM
[22] = second compound 1 µM, first compound 1 µM
[23] = second compound 1 µM, first compound 3.16 µM
[24] = second compound 1 µM, first compound 10 µM
[25] = second compound 3.16 µM, first compound 0.0316 µM
[26] = second compound 3.16 µM, first compound 0.1 µM
[27] = second compound 3.16 µM, first compound 0.316 µM
[28] = second compound 3.16 µM, first compound 1 µM
[29] = second compound 3.16 µM, first compound 3.16 µM
[30] = second compound 3.16 µM, first compound 10 µM
[31] = second compound 10 µM, first compound 0.0316 µM
[32] = second compound 10 µM, first compound 0.1 µM
[33] = second compound 10 µM, first compound 0.316 µM
[34] = second compound 10 µM, first compound 1 µM
[35] = second compound 10 µM, first compound 3.16 µM
[36] = second compound 10 µM, first compound 10 µM

Nc1ccn(C2OC(CO)C(O)C2(F)F)c(=O)n1 (centres undefined) + Cc1cnc(CNC(=O)c2c(=O)c3ccc(N4CCCN(C)CC4)nc3n3c2sc2ccccc23)cn1
IC50 (second compound 0.0316 µM): 49.4 nM
IC50 (second compound 0.1 µM): < 31.6 nM
IC50 (second compound 0.316 µM): < 31.6 nM
IC50 (second compound 1 µM): < 31.6 nM
IC50 (second compound 3.16 µM): < 31.6 nM
IC50 (second compound 10 µM): < 31.6 nM
viability, T/C [1]: 62.7%
viability, T/C [2]: 29.1%
viability, T/C [3]: 22.4%
viability, T/C [4]: 17.9%
viability, T/C [5]: 17.5%
viability, T/C [6]: 12.2%
viability, T/C [7]: 50%
viability, T/C [8]: 31.6%
viability, T/C [9]: 24.5%
viability, T/C [10]: 18.6%
viability, T/C [11]: 16.1%
viability, T/C [12]: 14.5%
viability, T/C [13]: 45.5%
viability, T/C [14]: 29.5%
viability, T/C [15]: 21.3%
viability, T/C [16]: 17.3%
viability, T/C [17]: 17.8%
viability, T/C [18]: 14%
viability, T/C [19]: 40.4%
viability, T/C [20]: 28.7%
viability, T/C [21]: 20.1%
viability, T/C [22]: 17.2%
viability, T/C [23]: 14.6%
viability, T/C [24]: 14.3%
viability, T/C [25]: 34.8%
viability, T/C [26]: 27.1%
viability, T/C [27]: 19.8%
viability, T/C [28]: 17.1%
viability, T/C [29]: 17.8%
viability, T/C [30]: 14.5%
viability, T/C [31]: 8.05%
viability, T/C [32]: 9.51%
viability, T/C [33]: 2.05%
viability, T/C [34]: 0.66%
viability, T/C [35]: 1.03%
viability, T/C [36]: 2.03%

O=C(NO)c1cnc(N2CCN(S(=O)(=O)c3ccc4ccccc4c3)CC2)nc1 + Cc1cnc(CNC(=O)c2c(=O)c3ccc(N4CCCN(C)CC4)nc3n3c2sc2ccccc23)cn1
IC50 (second compound 0.0316 µM): 124 nM
IC50 (second compound 0.1 µM): 184 nM
IC50 (second compound 0.316 µM): 121 nM
IC50 (second compound 1 µM): < 31.6 nM
IC50 (second compound 3.16 µM): < 31.6 nM
IC50 (second compound 10 µM): < 31.6 nM
viability, T/C [1]: 90.1%
viability, T/C [2]: 47.7%
viability, T/C [3]: 42.7%
viability, T/C [4]: 0.16%
viability, T/C [5]: 0.95%
viability, T/C [6]: 3.31%
viability, T/C [7]: 65.5%
viability, T/C [8]: 52.9%
viability, T/C [9]: 41.9%
viability, T/C [10]: 0.15%
viability, T/C [11]: 0.63%
viability, T/C [12]: 2.26%
viability, T/C [13]: 51.9%
viability, T/C [14]: 54%
viability, T/C [15]: 35.9%
viability, T/C [16]: 2.48%
viability, T/C [17]: 0.95%
viability, T/C [18]: 0.63%
viability, T/C [19]: 48.3%
viability, T/C [20]: 45.7%
viability, T/C [21]: 34%
viability, T/C [22]: 1.85%
viability, T/C [23]: 1.22%
viability, T/C [24]: 0.11%
viability, T/C [25]: 39%
viability, T/C [26]: 37.8%
viability, T/C [27]: 27.7%
viability, T/C [28]: 0.11%
viability, T/C [29]: 0.1%
viability, T/C [30]: 0.32%
viability, T/C [31]: 0.2%
viability, T/C [32]: 2.04%
viability, T/C [33]: 1.16%
viability, T/C [34]: 0.97%
viability, T/C [35]: 0.39%
viability, T/C [36]: 2.62%
